Test results published in patent publication US20250145665A1, “MACROCYCLIC PEPTIDES USEFUL AS MODULATORS OF TNF ALPHA” (Bristol-Myers Squibb Company, priority 2023, published 2025).
pIC50: −log10 of the molar value. Positions of bridges follow the written chain, without caps; N, C: chain ends. Non-standard residues stand in square brackets, D forms with d. Residues, ends and D or L forms follow the SMILES beside them. Ala(morpholin-4-yl) = N[C@@H](CN1CCOCC1)C(=O)O; Bip = N[C@@H](Cc1ccc(-c2ccccc2)cc1)C(=O)O; Phe(4-NH2) = Nc1ccc(C[C@H](N)C(=O)O)cc1; Val(3-OH) = CC(C)(O)[C@H](N)C(=O)O; 2Pal = N[C@@H](Cc1ccccn1)C(=O)O; 3Pal = N[C@@H](Cc1cccnc1)C(=O)O; Sar = CNCC(=O)O

These molecules were tested against TNFα (Homo sapiens, UniProt P01375) (assay: TNF-Induced HEK-Blue Assay). Conditions: HEK-Blue-CD40L cells, NF-kB-driven secreted alkaline phosphatase reporter; TNFα 0.5 ng/ml; 18 h; read-out: TNF induced HEK-Blue assay IC50 value.
TNFα, sequence (P01375 77-233 limits assumed): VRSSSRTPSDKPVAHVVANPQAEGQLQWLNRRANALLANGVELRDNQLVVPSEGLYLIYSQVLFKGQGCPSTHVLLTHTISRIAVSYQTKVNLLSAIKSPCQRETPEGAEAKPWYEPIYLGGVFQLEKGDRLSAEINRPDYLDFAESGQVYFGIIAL
Format: cell-based
Description: TNFα (final concentration 0.5 ng/ml) or CD40L (final concentration 30 ng/ml) in assay buffer [DMEM, 4.5 g/l glucose (Gibco, Cat. 21063-029), 10% FBS (Sigma, F4135), 1% Penicillin-Streptomycin (Gibco, Cat. 15140-122), 1% Anti-Anti (Gibco, Cat. 15240-112) and 2 mM L-glutamine (Gibco, Cat. 25030-081)] was then added to the assay plate. After a 30 minute pre-incubation at 37° C. and 5% CO2, HEK-Blue™-CD40L cells (INVIVOGEN, Cat. Code hkb-cd40) containing a NF-kB-driven secreted alkaline phosphatase reporter gene were seeded into the assay plate at a density of 20,000 cells per well. This plate was then incubated for 18 h at 37° C. and 5% CO2. Secreted alkaline phosphatase expression was measured using QUANTI-Blue™ (INVIVOGEN, Cat. Code rep-qb1) according to manufacturer's specifications and the assay plate was read on a PerkinElmer Envision at 620 nm.
IC50 values were determined after correcting for background [(sample read-mean of low control)/(mean of high control-mean of low control)] where by the low control is DMSO without stimulation and high control is DMSO with stimulation.

Row | SMILES | pIC50
1 | CC(C)C[C@@H]1NC(=O)[C@H](Cc2ccc(O)cc2)NC(=O)[C@H](C(C)C)NC(=O)[C@@H]2CCCN2C(=O)[C@H](Cc2ccc(N)cc2)NC(=O)[C@H](CCCNC(=N)N)NC(=O)[C@H](CC(=O)O)NC(=O)[C@H](Cc2ccc(O)cc2)NC(=O)CN(C)C(=O)[C@H](Cc2ccc(-c3ccccc3)cc2)NC(=O)[C@H](Cc2ccc(-c3ccccc3)cc2)NC(=O)[C@H](CN2CCOCC2)NC(=O)CSC[C@@H](C(=O)NCC(N)=O)NC1=O [Example 112] ({CH2CO}-[Ala(morpholin-4-yl)][Bip][Bip][Sar]YDR[Phe(4-NH2)]PVYLCG-NH2; thioether N-13) | 5.70 to 6.70
2 | CC(C)C[C@@H]1NC(=O)[C@H](Cc2ccc(O)cc2)NC(=O)[C@H](C(C)C)NC(=O)[C@@H]2CCCN2C(=O)[C@H](Cc2ccc(N)cc2)NC(=O)[C@H](CCCNC(=N)N)NC(=O)[C@H](CC(=O)O)NC(=O)[C@@H]2CCCN2C(=O)CN(C)C(=O)[C@H](Cc2ccc(-c3ccccc3)cc2)NC(=O)[C@H](Cc2ccc(-c3ccccc3)cc2)NC(=O)[C@H](CN2CCOCC2)NC(=O)CSC[C@@H](C(=O)NCC(N)=O)NC1=O [Example 113] ({CH2CO}-[Ala(morpholin-4-yl)][Bip][Bip][Sar]PDR[Phe(4-NH2)]PVYLCG-NH2; thioether N-13) | 5.70 to 6.70
3 | CC(C)C[C@@H]1NC(=O)[C@H](CCCNC(=N)N)NC(=O)[C@H](C(C)C)NC(=O)[C@@H]2CCCN2C(=O)[C@H](Cc2cccnc2)NC(=O)[C@H](CCCNC(=N)N)NC(=O)[C@H](CC(=O)O)NC(=O)[C@H](Cc2ccc(O)cc2)NC(=O)CN(C)C(=O)[C@H](Cc2ccc(-c3ccccc3)cc2)NC(=O)[C@H](Cc2ccc(-c3ccccc3)cc2)NC(=O)[C@H](CN2CCOCC2)NC(=O)CSC[C@@H](C(=O)NCC(N)=O)NC1=O [Example 114] ({CH2CO}-[Ala(morpholin-4-yl)][Bip][Bip][Sar]YDR[3Pal]PVRLCG-NH2; thioether N-13) | 5.70 to 6.70
4 | CC(C)C[C@@H]1NC(=O)[C@H](Cc2ccc(O)cc2)NC(=O)[C@H](C(C)C)NC(=O)[C@@H]2CCCN2C(=O)[C@H](Cc2cccnc2)NC(=O)[C@H](CCCNC(=N)N)NC(=O)[C@H](CC(=O)O)NC(=O)[C@H](Cc2ccc(O)cc2)NC(=O)CN(C)C(=O)[C@H](Cc2ccc(-c3ccccc3)cc2)NC(=O)[C@H](Cc2ccc(-c3ccccc3)cc2)NC(=O)[C@H](CN2CCOCC2)NC(=O)CSC[C@@H](C(=O)NCC(N)=O)NC1=O [Example 115] ({CH2CO}-[Ala(morpholin-4-yl)][Bip][Bip][Sar]YDR[3Pal]PVYLCG-NH2; thioether N-13) | 5.70 to 6.70
5 | CC(C)C[C@@H]1NC(=O)[C@H](CCCNC(=N)N)NC(=O)[C@H](C(C)C)NC(=O)[C@@H]2CCCN2C(=O)[C@H](Cc2cccnc2)NC(=O)[C@@H](CCCNC(=N)N)NC(=O)[C@H](CC(=O)O)NC(=O)[C@H](Cc2ccc(O)cc2)NC(=O)CN(C)C(=O)[C@H](Cc2ccc(-c3ccccc3)cc2)NC(=O)[C@H](Cc2ccc(-c3ccccc3)cc2)NC(=O)[C@H](CN2CCOCC2)NC(=O)CSC[C@@H](C(=O)NCC(N)=O)NC1=O [Example 117] ({CH2CO}-[Ala(morpholin-4-yl)][Bip][Bip][Sar]YD[dR][3Pal]PVRLCG-NH2; thioether N-13) | 5.70 to 6.70

The remaining lines, values ahead:

Row | pIC50 | SMILES
6 | 6.70 to 7.30 | CC(C)C[C@@H]1NC(=O)[C@H](Cc2ccc(O)cc2)NC(=O)[C@H](C(C)C)NC(=O)[C@H](Cc2cccnc2)NC(=O)[C@H](C(C)C)NC(=O)[C@H](CCCNC(=N)N)NC(=O)[C@H](CC(=O)O)NC(=O)[C@H](Cc2ccc(O)cc2)NC(=O)CN(C)C(=O)[C@H](Cc2ccc(-c3ccccc3)cc2)NC(=O)[C@H](Cc2ccc(-c3ccccc3)cc2)NC(=O)[C@H](C(C)(C)O)NC(=O)CSC[C@@H](C(=O)NCC(N)=O)NC1=O [Example 106] ({CH2CO}-[Val(3-OH)][Bip][Bip][Sar]YDRV[3Pal]VYLCG-NH2; thioether N-13)
7 | 6.70 to 7.30 | CC(C)C[C@@H]1NC(=O)[C@H](Cc2ccc(O)cc2)NC(=O)[C@H](C(C)C)NC(=O)[C@H](Cc2cccnc2)NC(=O)[C@H](C(C)C)NC(=O)[C@H](CCCNC(=N)N)NC(=O)[C@H](CC(=O)O)NC(=O)[C@H](Cc2ccc(O)cc2)NC(=O)CN(C)C(=O)[C@H](Cc2ccc(-c3ccccc3)cc2)NC(=O)[C@H](Cc2ccc(-c3ccccc3)cc2)NC(=O)[C@H](CN2CCOCC2)NC(=O)CSC[C@@H](C(=O)NCC(N)=O)NC1=O [Example 107] ({CH2CO}-[Ala(morpholin-4-yl)][Bip][Bip][Sar]YDRV[3Pal]VYLCG-NH2; thioether N-13)
8 | 6.70 to 7.30 | CC(C)C[C@@H]1NC(=O)[C@H](CCCNC(=N)N)NC(=O)[C@H](C(C)C)NC(=O)[C@H](Cc2ccccn2)NC(=O)[C@H](C(C)C)NC(=O)[C@H](CCCNC(=N)N)NC(=O)[C@H](CC(=O)O)NC(=O)[C@@H]2CCCN2C(=O)CN(C)C(=O)[C@H](Cc2ccc(-c3ccccc3)cc2)NC(=O)[C@H](Cc2ccc(-c3ccccc3)cc2)NC(=O)[C@H](C(C)(C)O)NC(=O)CSC[C@@H](C(=O)NCC(N)=O)NC1=O [Example 108] ({CH2CO}-[Val(3-OH)][Bip][Bip][Sar]PDRV[2Pal]VRLCG-NH2; thioether N-13)
9 | 5.70 to 6.70 | CC(C)C[C@@H]1NC(=O)[C@H](Cc2ccc(O)cc2)NC(=O)[C@H](C(C)C)NC(=O)[C@H](Cc2ccccn2)NC(=O)[C@H](C(C)C)NC(=O)[C@H](CCCNC(=N)N)NC(=O)[C@H](CC(=O)O)NC(=O)[C@H](Cc2ccc(O)cc2)NC(=O)CN(C)C(=O)[C@H](Cc2ccc(-c3ccccc3)cc2)NC(=O)[C@H](Cc2ccc(-c3ccccc3)cc2)NC(=O)[C@H](CN2CCOCC2)NC(=O)CSC[C@@H](C(=O)NCC(N)=O)NC1=O [Example 109] ({CH2CO}-[Ala(morpholin-4-yl)][Bip][Bip][Sar]YDRV[2Pal]VYLCG-NH2; thioether N-13)
10 | 6.70 to 7.30 | CC(C)C[C@@H]1NC(=O)[C@H](Cc2ccc(O)cc2)NC(=O)[C@H](C(C)C)NC(=O)[C@@H]2CCCN2C(=O)[C@H](Cc2ccc(O)cc2)NC(=O)[C@H](CCCNC(=N)N)NC(=O)[C@H](CC(=O)O)NC(=O)[C@H](Cc2ccc(O)cc2)NC(=O)CN(C)C(=O)[C@H](Cc2ccc(-c3ccccc3)cc2)NC(=O)[C@H](Cc2ccc(-c3ccccc3)cc2)NC(=O)[C@H](C(C)(C)O)NC(=O)CSC[C@@H](C(=O)NCC(N)=O)NC1=O [Example 110] ({CH2CO}-[Val(3-OH)][Bip][Bip][Sar]YDRYPVYLCG-NH2; thioether N-13)
11 | 5.70 to 6.70 | CC(C)C[C@@H]1NC(=O)[C@H](Cc2ccc(O)cc2)NC(=O)[C@H](C(C)C)NC(=O)[C@@H]2CCCN2C(=O)[C@H](Cc2ccc(O)cc2)NC(=O)[C@H](CCCNC(=N)N)NC(=O)[C@H](CC(=O)O)NC(=O)[C@@H]2CCCN2C(=O)CN(C)C(=O)[C@H](Cc2ccc(-c3ccccc3)cc2)NC(=O)[C@H](Cc2ccc(-c3ccccc3)cc2)NC(=O)[C@H](C(C)(C)O)NC(=O)CSC[C@@H](C(=O)NCC(N)=O)NC1=O [Example 111] ({CH2CO}-[Val(3-OH)][Bip][Bip][Sar]PDRYPVYLCG-NH2; thioether N-13)
12 | 6.70 to 7.30 | CC(C)C[C@@H]1NC(=O)[C@H](Cc2ccc(O)cc2)NC(=O)[C@H](C(C)C)NC(=O)[C@@H]2CCCN2C(=O)[C@H](Cc2cccnc2)NC(=O)[C@H](CCCNC(=N)N)NC(=O)[C@H](CC(=O)O)NC(=O)[C@@H]2CCCN2C(=O)CN(C)C(=O)[C@H](Cc2ccc(-c3ccccc3)cc2)NC(=O)[C@H](Cc2ccc(-c3ccccc3)cc2)NC(=O)[C@H](CN2CCOCC2)NC(=O)CSC[C@@H](C(=O)NCC(N)=O)NC1=O [Example 116] ({CH2CO}-[Ala(morpholin-4-yl)][Bip][Bip][Sar]PDR[3Pal]PVYLCG-NH2; thioether N-13)
